Assay results: paper PMC8160210, “Single tryptophan Y160W mutant of homooligomeric E. coli purine nucleoside phosphorylase implies that dimers forming the hexamer are functionally not equivalent” (Scientific Reports, 2021)

Biological target: Y160W PNP mutant (Escherichia coli, UniProt P0ABP8, Y161W)
Test: Inhibition of m^7Guo phosphorolysis
Assay type: biochemical, E. coli
Design: made in house; host or cells: E. coli DH5α-T1
Experimental: All activity measurements and kinetic studies were done in 50 mM Hepes/HCl buffer pH 7.0 at 25 °C as previously described for the WT E. coli PNP and its active-site mutants, using direct spectrophotometric assay for adenosine, guanosine and 7-methylguanosine as substrates, and a coupled assay with xanthine oxidase in the case of inosine[13],[28],[29]. Activity measurements were performed for each protein sample, before and after each experiment as a control of the state of the protein.
To determine inhibition model and inhibition constant for formycin A, rate of phosphorolysis with m^7Guo as a variable substrate, at constant, 50 mM, phosphate concentration, was registered in the absence of the inhibitor and in the presence of two different concentrations of formycin. A global fitting to the whole data set was performed, using various models (competitive, uncompetitive, noncompetitive, mixed). As expected for the substrate analogue, competitive model described the data sufficiently well:3 v0c0=Vmax1c0/c0+KM1+ci/Ki where ci is inhibitor concentration. Kinetic data were analysed using the GraphPad Prism program (Intuitive Software for Science, San Diego, CA, USA).

Chain of Y160W PNP mutant (P0ABP8 2-239 Y161W): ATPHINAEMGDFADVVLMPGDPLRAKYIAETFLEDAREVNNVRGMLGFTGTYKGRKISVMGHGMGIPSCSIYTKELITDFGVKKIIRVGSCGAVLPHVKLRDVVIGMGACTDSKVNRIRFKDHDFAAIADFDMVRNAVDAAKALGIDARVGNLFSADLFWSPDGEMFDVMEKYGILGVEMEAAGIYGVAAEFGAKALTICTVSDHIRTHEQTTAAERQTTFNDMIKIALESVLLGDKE

Nc1ncnc2c([C@@H]3O[C@H](CO)[C@@H](O)[C@H]3O)[nH]nc12 [FA, Formycin A]
Ki: 42 ± 4 µM
